Measured values as given in article PMC8876975, “EGFR and COX-2 Dual Inhibitor: The Design, Synthesis, and Biological Evaluation of Novel Chalcones” (Molecules, 2022).
Like-named read-outs stand apart in the source and are kept apart here.

Experiments:
[1] = system: human malignant melanoma (A375); test: MTT cytotoxicity assay, A375; format: cell-based; settings: read-out: Antiproliferative Activity IC50 ± SEM, A375
[2] = system: human colon cancer (HT-29); test: MTT cytotoxicity assay, HT-29; format: cell-based; settings: HT-29, MTT, 72 h, read-out: Antiproliferative Activity IC50 ± SEM, HT-29
lung cancer (H-460) = test: MTT cytotoxicity assay, H-460; format: cell-based; settings: H-460, MTT, 72 h, read-out: Antiproliferative Activity IC50 ± SEM, H-460
TNF-α = test: ELISA, LPS-induced TNF-α release in RAW264.7 macrophages; format: cell-based, mouse; settings: for % Inhibition of TNF-α / inhibition at 10 µM: RAW 264.7, compound 10 µM for 2 h, then LPS 0.5 µg/mL for 22 h; for Relative Amount of LPS (TNF-α): RAW 264.7, compound 10 µM, TNF-α relative to LPS control = 100; for inhibition at 10 µM: Mus musculus, RAW264.7
Sheep-derived COX-1 = target: T1, Sheep-derived COX-1 (Ovis aries, UniProt P05979); test: Cyclooxygenase assay (PGE2 quantification), COX-1
T1 sequence (P05979 25-600): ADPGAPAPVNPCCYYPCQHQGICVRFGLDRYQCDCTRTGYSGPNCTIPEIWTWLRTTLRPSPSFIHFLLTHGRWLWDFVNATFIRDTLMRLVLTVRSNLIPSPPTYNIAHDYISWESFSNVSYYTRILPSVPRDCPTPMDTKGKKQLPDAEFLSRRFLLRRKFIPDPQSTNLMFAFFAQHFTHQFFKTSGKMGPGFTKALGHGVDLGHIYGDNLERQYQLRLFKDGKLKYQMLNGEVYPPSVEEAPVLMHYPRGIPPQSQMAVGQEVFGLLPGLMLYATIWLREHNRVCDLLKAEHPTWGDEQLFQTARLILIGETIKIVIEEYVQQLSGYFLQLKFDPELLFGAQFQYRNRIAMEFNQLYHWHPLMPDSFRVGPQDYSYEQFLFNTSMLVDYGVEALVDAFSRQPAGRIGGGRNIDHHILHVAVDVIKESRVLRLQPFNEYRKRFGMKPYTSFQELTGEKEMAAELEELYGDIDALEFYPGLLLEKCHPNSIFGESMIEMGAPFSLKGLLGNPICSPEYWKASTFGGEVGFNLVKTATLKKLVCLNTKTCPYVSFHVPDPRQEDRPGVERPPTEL

[3] = target: T2, human recombinant sPLA2-V (Homo sapiens, UniProt P39877); test: Secretory PLA2-V activity assay (Ellman's photometric method)
T2 sequence (P39877 21-138): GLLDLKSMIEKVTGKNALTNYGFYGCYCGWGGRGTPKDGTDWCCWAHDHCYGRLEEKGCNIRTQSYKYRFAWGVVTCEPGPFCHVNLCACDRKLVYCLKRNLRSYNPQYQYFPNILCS

EGFR = target: T3, EGFR (Homo sapiens, UniProt P00533); test: EGFR kinase inhibition assay (EGFR Kinase Assay Kit); format: biochemical; settings: triplicates; read-out: EGFR Inhibition IC50 ± SEM
T3 construct: purchased PBS Bioscience (so in the source)

[4] = system: normal human fetal lung fibroblast cell line, MRC5
[5] = system: pancreatic cancer (PaCa-2); test: MTT cytotoxicity assay, PaCa-2; format: cell-based; settings: PaCa-2, MTT, 72 h; read-out: Antiproliferative Activity IC50 ± SEM, PaCa-2
IL-6 = test: ELISA, LPS-induced IL-6 release in RAW264.7 macrophages; format: cell-based, mouse; settings: for % Inhibition of IL-6 / inhibition at 10 µM: RAW 264.7, compound 10 µM for 2 h, then LPS 0.5 µg/mL for 22 h; for Relative Amount of LPS (IL-6): RAW 264.7, compound 10 µM, IL-6 relative to LPS control = 100; for inhibition at 10 µM: Mus musculus, RAW264.7
human recombinant COX-2 = target: T4, human recombinant COX-2 (Homo sapiens, UniProt P35354); test: Cyclooxygenase assay (PGE2 quantification), COX-2; format: biochemical; settings: mean ± SD; n = 3
T4 construct: purchased Cayman Chemicals
T4 sequence (P35354 18-604): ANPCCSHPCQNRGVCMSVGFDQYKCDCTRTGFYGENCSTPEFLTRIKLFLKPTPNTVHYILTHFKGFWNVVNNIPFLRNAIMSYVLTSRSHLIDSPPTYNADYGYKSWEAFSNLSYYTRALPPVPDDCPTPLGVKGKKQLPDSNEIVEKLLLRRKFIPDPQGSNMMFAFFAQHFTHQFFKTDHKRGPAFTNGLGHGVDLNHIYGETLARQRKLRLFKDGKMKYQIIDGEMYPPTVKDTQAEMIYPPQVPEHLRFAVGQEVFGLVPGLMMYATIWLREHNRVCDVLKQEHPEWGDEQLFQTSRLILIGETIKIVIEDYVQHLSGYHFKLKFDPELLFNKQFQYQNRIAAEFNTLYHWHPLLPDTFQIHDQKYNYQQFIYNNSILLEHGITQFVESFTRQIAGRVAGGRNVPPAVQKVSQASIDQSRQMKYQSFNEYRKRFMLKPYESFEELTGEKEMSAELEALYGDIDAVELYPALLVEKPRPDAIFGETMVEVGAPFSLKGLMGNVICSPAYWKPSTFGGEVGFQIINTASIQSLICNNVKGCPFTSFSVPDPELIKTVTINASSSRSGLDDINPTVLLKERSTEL

[6] = system: pancreatic ductal cancer (Panc-1); test: MTT cytotoxicity assay, Panc-1; format: cell-based; settings: Panc-1, MTT, 72 h, read-out: Antiproliferative Activity IC50 ± SEM, Panc-1
[7] = Cell viability % (MTT, normal cell line); settings: human, MRC5 normal fetal lung fibroblast cells
[8] = system: normal human fetal lung fibroblast cell line, MRC5; test: Cell viability % (MTT, normal cell line); settings: cell line and concentration not named in Table 1; supplement names MRC5 as normal cell line
[9] = read-out: COX-1 IC50, mean ± SD, n = 3
[10] = read-out: sPLA2-V IC50, mean ± SD, n = 3

Compound	Relative Amount of LPS (TNF-α) (TNF-α)	IC50 (EGFR) [nM]	IC50 [5] [nM]	Relative Amount of LPS (IL-6) (IL-6)	IC50 (human recombinant COX-2) [nM]	IC50 ([1]; Homo sapiens, A-375, 72 h) [nM]	IC50 ([2]; Homo sapiens) [nM]	IC50 (lung cancer (H-460); Homo sapiens, NCI-H460) [nM]	inhibition at 10 µM (TNF-α) [%]	IC50 (Sheep-derived COX-1) [nM]	IC50 [3] [nM]	viability at 72 h [7] [%]	inhibition at 10 µM (IL-6) [%]	IC50 ([6]; Homo sapiens) [nM]	further results
(E)-3-(4-Fluorophenyl)-1-(4-((E)-(4-hydroxynaphthalen-1-yl)diazenyl)phenyl) prop-2-en-1-one [Compound C10]	24	1100	900 ± 400	23	1880 ± 400	–	–	–	–	–	–	–	–	–	IC50 ([1]; 72 h): 2600 ± 1000 nM; IC50 [2]: 1100 ± 200 nM; IC50 (lung cancer (H-460)): 1200 ± 100 nM; % Inhibition of TNF-α (TNF-α): 76%; IC50 (Sheep-derived COX-1; [9]): 7370 ± 1440 nM; IC50 [3, 10]: 3140 ± 640 nM; Cell Viability % [4]: 91.2 ± 2.9%; % Inhibition of IL-6 (IL-6): 77%; IC50 [6]: 1600 ± 500 nM
CN(C)c1ccc(/C=C/C(=O)c2cccc(/N=N\c3ccc(O)c4ncccc34)c2)cc1 [Compound C18, (E)-3-(4-(dimethylamino)phenyl)-1-(3-((Z)-(8-hydroxyquinolin-5-yl)diazenyl)phenyl) prop-2-en-1-one]	29	–	6400 ± 1500	–	3200 ± 600	8800 ± 2500	6700 ± 600	6300 ± 1400	71	40200 ± 3420	8290 ± 880	88.4 ± 2.9	73	6400 ± 400	–
CC(=O)c1cccc(/N=N/c2ccc(O)c3ccccc23)c1 [Compound A4, (E)-1-(3-((4-Hydroxynaphthalen-1-yl)diazenyl)phenyl)ethan-1-one]	51	3200 ± 800	2000 ± 600	54	16800 ± 2430	4400 ± 1900	2700 ± 600	3400 ± 1000	49	11100 ± 1050	14100 ± 1520	87.4 ± 1.7	46	2000 ± 400	–
CN(C)c1ccc(/C=C/C(=O)c2ccc(/N=N/c3ccc(O)c(C(=O)O)c3)cc2)cc1 [Compound C15, 5. -((E)-(4-((E)-3-(4-(Dimethylamino)phenyl)acryloyl)phenyl)diazenyl)-2-hydroxy benzoic acid]	19	2800 ± 500	2300 ± 400	22	950 ± 200	–	–	–	–	–	–	–	–	–	IC50 ([1]; 72 h): 3400 ± 1800 nM; IC50 [2]: 1600 ± 200 nM; IC50 (lung cancer (H-460)): 1700 ± 200 nM; % Inhibition of TNF-α (TNF-α): 81%; IC50 (Sheep-derived COX-1; [9]): 1900 ± 230 nM; IC50 [3, 10]: 2010 ± 1110 nM; Cell Viability % [8]: 87.3 ± 2.1%; % Inhibition of IL-6 (IL-6): 78%; IC50 [6]: 1900 ± 100 nM
O=C(/C=C/c1ccc(F)cc1)c1cccc(/N=N/c2ccc(O)cc2O)c1 [Compound C8, (E)-1-(3-((E)-(2,4-Dihydroxyphenyl)diazenyl)phenyl)-3-(4-fluorophenyl) prop-2-en-1-one]	–	4900 ± 900	2800 ± 600	–	32100 ± 1400	2600 ± 500	2500 ± 7000	2200 ± 500	–	5140 ± 1270	14200 ± 1320	83.5 ± 1.2	–	1900 ± 700	–
CN(C)c1ccc(/C=C/C(=O)c2cccc(/N=N/c3ccc(O)c4ccccc34)c2)cc1 [Compound C16, (E)-3-(4-(Dimethylamino)phenyl)-1-(3-((E)-(4-hydroxynaphthalen-1-yl)diazenyl)phenyl) prop-2-en-1-one]	28	2900 ± 400	1900 ± 500	31	6890 ± 800	2800 ± 1000	1800 ± 400	2900 ± 1000	72	7100 ± 1290	2510 ± 1050	92.5 ± 2	69	1800 ± 500	–
O=C(/C=C/c1ccc(F)cc1)c1cccc(/N=N\c2ccc(O)c(C(=O)O)c2)c1 [Compound C9, 5. -((Z)-(3-((E)-3-(4-Fluorophenyl)acryloyl)phenyl)diazenyl)-2-hydroxybenzoic acid]	26	800 ± 300	2100 ± 300	23	1270 ± 300	3200 ± 1100	1200 ± 300	1200 ± 200	74	8570 ± 1890	2740 ± 1240	90.2 ± 4.1	77	1800 ± 400	–
CC(=O)c1cccc(/N=N/c2ccc(O)c(C(=O)O)c2)c1 [Compound A3, (E)-5-((3-Acetylphenyl)diazenyl)-2-hydroxybenzoic acid]	21	4300 ± 700	2400 ± 1500	28	2400 ± 800	4000 ± 1500	1800 ± 500	1800 ± 400	79	210 ± 70	2140 ± 940	79.6 ± 4.5	72	2200 ± 900	–
O=C(/C=C/c1ccc(F)cc1)c1cccc(/N=N/c2ccc(O)cc2)c1 [Compound C7, (E)-3-(4-Fluorophenyl)-1-(3-((E)-(4-hydroxyphenyl)diazenyl)phenyl) prop-2-en-1-one]	–	5800 ± 1100	2900 ± 1700	–	29400 ± 1730	5300 ± 1500	4500 ± 1700	5000 ± 1400	–	7520 ± 1420	24700 ± 1590	82.6 ± 1.2	–	4800 ± 1600	–
